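The compound was tested at five concentrations on cells cultured in 96-well plates, with a 48-hour exposure period. At the GI50, growth is halved.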 Active and inactive are the calls of the source. Cut-off read from the data, not from the text of the source: active = GI50 up to about 1.1 µM and inactive = higher.
Experiments:
Experiment in all cases: DTP human tumour cell line panel, 48 h
786-0 = system: 786-0
A498 = system: A498
A549 = system: A549
ACHN = system: ACHN
BT-549 = system: BT-549
CCRF-CEM = system: CCRF-CEM
COLO 205 = system: COLO 205
DU-145 = system: DU-145
EKVX = system: EKVX
HCC 2998 = system: HCC 2998
HCT-116 = system: HCT-116
HCT-15 = system: HCT-15
HL-60 = system: HL-60
HOP-62 = system: HOP-62
HOP-92 = system: HOP-92
HT-29 = system: HT-29
IGROV-1 = system: IGROV-1
K562 = system: K562
KM12 = system: KM12
LOX IMVI = system: LOX IMVI
M14 = system: M14
MCF7 = system: MCF7
MDA-MB-231 = system: MDA-MB-231
MDA-MB-435 = system: MDA-MB-435
MDA-N = system: MDA-N
MOLT-4 = system: MOLT-4
NCI-H226 = system: NCI-H226
NCI-H23 = system: NCI-H23
NCI-H460 = system: NCI-H460
NCI/ADR-RES = system: NCI/ADR-RES
OVCAR-3 = system: OVCAR-3
OVCAR-4 = system: OVCAR-4
OVCAR-5 = system: OVCAR-5
PC-3 = system: PC-3
RPMI-8226 = system: RPMI-8226
RXF 393 = system: RXF 393
SF-268 = system: SF-268
SF-539 = system: SF-539
SK-MEL-28 = system: SK-MEL-28
SK-MEL-2 = system: SK-MEL-2
SK-MEL-5 = system: SK-MEL-5
SK-OV-3 = system: SK-OV-3
SN12C = system: SN12C
SNB-19 = system: SNB-19
SR = system: SR
SW-620 = system: SW-620
T47D = system: T47D
TK-10 = system: TK-10
U-251 = system: U-251
UACC-257 = system: UACC-257
UACC-62 = system: UACC-62
UO-31 = system: UO-31
CAKI-1 = system: CAKI-1
Hs-578T = system: Hs-578T
NCI-H522 = system: NCI-H522
OVCAR-8 = system: OVCAR-8
SF-295 = system: SF-295
SNB-75 = system: SNB-75

Clc1ccc(/C=C/c2nc(-c3ccccc3)cn3c2nc2ccccc23)cc1Cl
GI50 (786-0): 37.5 µM (inactive) | GI50 (A498): > 100 µM (inactive) | GI50 (A549): 59.6 µM (inactive) | GI50 (ACHN): 49.5 µM (inactive) | GI50 (BT-549): 61.7 µM (inactive) | GI50 (CCRF-CEM): 20.1 µM (inactive) | GI50 (COLO 205): > 100 µM (inactive) | GI50 (DU-145): > 100 µM (inactive) | GI50 (EKVX): 40.3 µM (inactive) | GI50 (HCC 2998): 43.5 µM (inactive) | GI50 (HCT-116): 27.7 µM (inactive) | GI50 (HCT-15): 34.3 µM | GI50 (HL-60): 19.6 µM (inactive) | GI50 (HOP-62): 59.2 µM (inactive) | GI50 (HOP-92): 70 µM (inactive) | GI50 (HT-29): 37.3 µM (inactive) | GI50 (IGROV-1): 36.1 µM (inactive) | GI50 (K562): 43.6 µM (inactive) | GI50 (KM12): 31.4 µM (inactive) | GI50 (LOX IMVI): 59.8 µM (inactive) | GI50 (M14): 56.4 µM (inactive) | GI50 (MCF7): 34.8 µM (inactive) | GI50 (MDA-MB-231): > 100 µM (inactive) | GI50 (MDA-MB-435): 35.3 µM (inactive) | GI50 (MDA-N): 60 µM (inactive) | GI50 (MOLT-4): 46.9 µM (inactive) | GI50 (NCI-H226): > 100 µM (inactive) | GI50 (NCI-H23): 31.2 µM (inactive) | GI50 (NCI-H460): 32.7 µM (inactive) | GI50 (NCI/ADR-RES): 55.6 µM (inactive) | GI50 (OVCAR-3): 31.9 µM (inactive) | GI50 (OVCAR-4): 40.9 µM (inactive) | GI50 (OVCAR-5): > 100 µM (inactive) | GI50 (PC-3): 62.4 µM (inactive) | GI50 (RPMI-8226): 41.9 µM (inactive) | GI50 (RXF 393): 50.7 µM (inactive) | GI50 (SF-268): 59 µM (inactive) | GI50 (SF-539): > 100 µM (inactive) | GI50 (SK-MEL-28): 65.8 µM (inactive) | GI50 (SK-MEL-2): > 100 µM (inactive) | GI50 (SK-MEL-5): 50.2 µM (inactive) | GI50 (SK-OV-3): > 100 µM (inactive) | GI50 (SN12C): 38.1 µM (inactive) | GI50 (SNB-19): 59.6 µM (inactive) | GI50 (SR): 33.7 µM (inactive) | GI50 (SW-620): 41.6 µM (inactive) | GI50 (T47D): 41.7 µM (inactive) | GI50 (TK-10): 56.6 µM (inactive) | GI50 (U-251): 42 µM (inactive) | GI50 (UACC-257): > 100 µM (inactive) | GI50 (UACC-62): > 100 µM (inactive) | GI50 (UO-31): 58.1 µM (inactive)

C=C1C(=O)O[C@@H]2/C=C(/C)[C@@H](OC(C)=O)C/C=C(\C)C(O)[C@@H](OC(=O)/C(C)=C\C)C12 (stereo partly drawn)
GI50 (786-0): 15.1 µM (inactive) | GI50 (A498): 51.3 µM (inactive) | GI50 (A549): 95.7 µM (inactive) | GI50 (ACHN): 18.7 µM (inactive) | GI50 (BT-549): 20.1 µM (inactive) | GI50 (CAKI-1): 24.2 µM (inactive) | GI50 (CCRF-CEM): 9.53 µM (inactive) | GI50 (COLO 205): 18.1 µM (inactive) | GI50 (DU-145): 43.7 µM (inactive) | GI50 (EKVX): 32.1 µM (inactive) | GI50 (HCC 2998): 24.6 µM (inactive) | GI50 (HCT-116): 16.3 µM (inactive) | GI50 (HCT-15): 16.5 µM | GI50 (HL-60): 14.8 µM (inactive) | GI50 (HOP-62): > 100 µM (inactive) | GI50 (HOP-92): 22.1 µM (inactive) | GI50 (HT-29): 20.6 µM (inactive) | GI50 (Hs-578T): 56.2 µM (inactive) | GI50 (IGROV-1): 50.7 µM (inactive) | GI50 (K562): 22.6 µM (inactive) | GI50 (KM12): 68.7 µM (inactive) | GI50 (LOX IMVI): 14.6 µM (inactive) | GI50 (M14): 33.1 µM (inactive) | GI50 (MCF7): 27.6 µM (inactive) | GI50 (MDA-MB-231): 19.1 µM (inactive) | GI50 (MDA-MB-435): 20.4 µM (inactive) | GI50 (MOLT-4): 21.1 µM (inactive) | GI50 (NCI-H226): > 100 µM (inactive) | GI50 (NCI-H23): 41.9 µM (inactive) | GI50 (NCI-H460): 39 µM (inactive) | GI50 (NCI-H522): 13.4 µM (inactive) | GI50 (NCI/ADR-RES): 32.7 µM (inactive) | GI50 (OVCAR-3): 35.7 µM (inactive) | GI50 (OVCAR-4): 41.6 µM (inactive) | GI50 (OVCAR-5): 58.2 µM (inactive) | GI50 (OVCAR-8): 26.8 µM (inactive) | GI50 (PC-3): 76.2 µM (inactive) | GI50 (RPMI-8226): 21.6 µM (inactive) | GI50 (RXF 393): 26.8 µM (inactive) | GI50 (SF-268): 38.3 µM (inactive) | GI50 (SF-295): > 100 µM (inactive) | GI50 (SF-539): 34.4 µM (inactive) | GI50 (SK-MEL-28): 18.2 µM (inactive) | GI50 (SK-MEL-2): 27.6 µM (inactive) | GI50 (SK-MEL-5): 15.8 µM (inactive) | GI50 (SK-OV-3): > 100 µM (inactive) | GI50 (SN12C): 21 µM (inactive) | GI50 (SNB-19): > 100 µM (inactive) | GI50 (SNB-75): 79.8 µM (inactive) | GI50 (SR): 17.3 µM (inactive) | GI50 (SW-620): 16.5 µM (inactive) | GI50 (T47D): 19.6 µM (inactive) | GI50 (TK-10): 68.7 µM (inactive) | GI50 (U-251): 41.1 µM (inactive) | GI50 (UACC-257): 37.2 µM (inactive) | GI50 (UACC-62): 26.4 µM (inactive)

— ChEMBL document CHEMBL1201862, “PubChem BioAssay data set” (2004)
